“Also recorded” adds a separate entry of the source. Read-outs that look alike come from different tables or passages of the source.
Columns and labels:
Assay type in all cases: cell-based, human
[1] = test system: Endothelial cells over-expressing single genes from NFkB, PI3K/Akt, RAS/MAPK or JAK/STAT pathways; assay: Compound profiling in 20 gene over-expression assays (NFkB, PI3K/Akt, RAS/MAPK, JAK/STAT), pairwise Pearson correlation; conditions: DRB 10 micromolar, Apigenin 6 micromolar, 24 hours
Procedure: Endothelial cells expressing 16 individual genes from NFκB, RAS, PI3K/AKT and JAK/STAT (IFN-γ and IL-4) pathways were treated with compounds for 24 hours. Where indicated additional cytokines were added to cells to reveal activity of the over-expressed genes (e.g. AKT1/IL1 means that IL-1-beta was added to AKT-over-expressing cells). Parameters measured were VCAM-1 for NFκB, PI3K, and RAS/MAPK pathway genes, HLA-DR for JAK/STAT(IFNγ) pathway genes, and VCAM-1 (IL4/VCAM-1) and Eotaxin-3 (IL4/Eot3) for JAK/STAT(IL4) pathway. […] Statistically significant correlations (permutation method described further in the text and in Example 1B) in the table are shaded (dark grey for correlation coefficients in the range of 0.75 to 1, and light grey for the range of 0.55 to 0.75).
With a permutation technique, an average distribution of the correlation coefficients that will be obtained by chance is constructed and the values of the correlations that correspond to a required level of significance are obtained. The original similarity matrix is filtered using these values, thus providing a consistent way of identifying correlations coefficients with potential biological significance. This method also allows calculation of a false positive rate, providing the user with a way of balancing “hit rate” and stringency of correlation significance. […]

[2] = test system: HUVEC cell lines over-expressing IKBKB; assay: VCAM-1 expression (ELISA) in HUVEC over-expressing IKBKB
[3] = test system: HUVEC cell lines over-expressing RELA; assay: VCAM-1 expression (ELISA) in HUVEC over-expressing RELA
[4] = test system: MYD88 over-expressing endothelial cells; assay: Response to MYD88 over-expression in IL-1-beta-treated endothelial cells (VCAM-1, E-selectin); conditions: IL-1-beta-treated cells; MYD88 inhibits VCAM-1 and E-selectin expression
Procedure: (§1) A. Grouping Genes into Signal Transduction Pathways by Gene Over-Expression. Genes encoding key elements of pro-inflammatory pathways (IL-1, TNF-alpha, CD40, and IFN-gamma), the core NFkB pathway, the PI3K/Akt pathway, and the RAS/RAF/MEK pathway (see Table 2) were introduced into endothelial cells by retroviral transduction and allowed to express their encoded proteins for 48 hours, substantially as described in Example 1. The gene-modified endothelial cells were then subjected to 24 hour cytokine stimulation.
(§2) Gene over-expression generally results in activation of the target pathway (in contrast to most pharmaceutical drugs, which are typically inhibitors).
(§3) To explore this observation further, we re-examined the response to MYD88 and genes encoding representative members of the RAS/MAPK and NFkB pathways (RAS* and TNFRSF1A, respectively) in all individual cell systems. […] By contrast, the response induced by MYD88 in IL-1-beta-treated cells was similar to that induced by RAS*, the main effect being to inhibit expression of the adhesion molecules VCAM-1 and E-selectin. Over-expression of MYD88 thus appears to stimulate the RAS/MAPK pathway under these conditions. […] MYD88 (and IRAK1) are known to be involved in IL-1-induced but not in TNF-induced signaling, and PD098059 indeed had no effect on VCAM-1 expression in TNF-alpha-treated cells. […]

[5] = test system: RAS* over-expressing endothelial cells; assay: Response to RAS* over-expression in IL-1-beta-treated endothelial cells (VCAM-1, E-selectin); conditions: IL-1-beta-treated cells; RAS* inhibits VCAM-1 and E-selectin expression
Procedure: as §1, §2, §3

TNF-alpha-treated cells = assay: VCAM-1 expression in TNF-alpha-treated endothelial cells
From the text: as §2
To explore this observation further, we re-examined the response to MYD88 and genes encoding representative members of the RAS/MAPK and NFkB pathways (RAS* and TNFRSF1A, respectively) in all individual cell systems. […] By contrast, the response induced by MYD88 in IL-1-beta-treated cells was similar to that induced by RAS*, the main effect being to inhibit expression of the adhesion molecules VCAM-1 and E-selectin. Over-expression of MYD88 thus appears to stimulate the RAS/MAPK pathway under these conditions. […] MYD88 (and IRAK1) are known to be involved in IL-1-induced but not in TNF-induced signaling, and PD098059 indeed had no effect on VCAM-1 expression in TNF-alpha-treated cells. Multi-system analysis can thus detect novel functional interrelationships between different signaling pathways.

[6] = test system: RAS*, RAF* or MEK1* over-expressing cells; assay: Profiles induced by over-expression of RAS*, RAF* or MEK1* genes
From the text: The pathway information developed by practice of the methods of the present invention facilitates the in-depth characterization (mechanism-of-action studies) of chemical compounds. […] A high throughput approach can be used to test a compound against genes from known signaling pathways, as well as genes of unknown pathway origin.

[7] = test system: HUVEC stimulated with IL-1-beta, TNF-alpha and IFN-gamma; assay: Functional profiles in HUVEC stimulated with IL-1-beta, TNF-alpha and IFN-gamma compared with siRNA knock-down profiles; conditions: E-selectin, HLA-DR, ICAM-1, IL-8, MCP-1, MIG, VCAM-1 readouts
From the text: The cells used to generate functional profiles were HUVEC stimulated with a mixture of cytokines IL-1beta+TNF-alpha+IFN-gamma, and the readout parameters were E-selectin, HLA-DR, ICAM-1, IL-8, MCP-1, MIG and VCAM-1. Statistical analysis (permutation method) and generation of a two-dimensional map was done as described above.
Early passage (<5) exponentially growing HUVEC cells were harvested, washed once with PBS, and resuspended at 2×10^6 cells in 100 microliter Nucelofection solution (Human Umbilical Vein Endothelial Cell Nucleofector Kit, AMAXA, Koeln, Germany). SiRNA (15 microliter of a 20 micromolar solution; Dharmacon, Lafayette, Colo.) was added to the cell suspension, transferred into an electroporation cuvette, and electroporated using the U-1 setting on an AMAXA Nucleofector device. The cell suspension was then transferred into a separate tube containing 3 ml of complete EGM-2 media (Clonetics), incubated at 37° C. for 10 minutes, and plated into 96-well microtiter plates (25,000 cells/well) for cytokine activation and ELISA analysis as described above. Statistical analyses and pairwise correlation analyses of functional profiles obtained by gene knock-down were performed in the manner as described for the gene-over-expression approach described above.

[8] = test system: HUVEC cell lines over-expressing TNF-alpha; assay: VCAM-1 expression (ELISA) in HUVEC over-expressing TNF-alpha

## OC[C@H]1O[C@@H](n2cnc3cc(Cl)c(Cl)cc32)[C@H](O)[C@@H]1O [DRB]
[1]
  Overlap of functional profile with those of 17-MG and beta-zearalenol: only in the JAK/STAT portion of the overall profile

## CC(Cc1ccc(O)c(O)c1)C(C)Cc1ccc(O)c(O)c1 (stereo not shown) [NDGA, nordihydroguaiaretic acid]
[2]
  Inhibition of IKBKB induced VCAM-1 expression: not IKBKB or RELA induced VCAM-1 expression; also recorded: inhibits only the TNF-alpha gene
[3]
  Inhibition of RELA induced VCAM-1 expression: not IKBKB or RELA induced VCAM-1 expression; also recorded: inhibits only the TNF-alpha gene

## COc1cccc(-c2cc(=O)c3ccccc3o2)c1N [PD098059]
[4]
  Effect on the response induced by MYD88 over-expression: reversed the effect
[5]
  Effect on the response induced by RAS* over-expression: reversed the effect
TNF-alpha-treated cells
  Effect on VCAM-1 expression: no effect
[6]; gene over-expressing cells
  Effect on profiles induced by RAS*, RAF* or MEK1* genes: affected

## Oc1ccc(-c2nc(-c3ccncc3)c(-c3ccc(F)cc3)[nH]2)cc1 [SB202190]
[7]
  Similarity of functional profile to siRNA-mediated dual knock-down of MEK3 and 6: similar

## N#CC(=C(/N)Sc1ccccc1N)/C(C#N)=C(/N)Sc1ccccc1N [Uo126]
[6]
  Effect on profiles induced by RAS*, RAF* or MEK1* genes: affected

## O=c1cc(-c2ccc(O)cc2)oc2cc(O)cc(O)c12 [apigenin]
[1]
  Overlap of functional profile with those of 17-MG and beta-zearalenol: only in the JAK/STAT portion of the overall profile

## CC(C)Cc1ccc(C(C)C(=O)O)cc1 (stereo not shown) [ibuprofen]
[8]
  Inhibition of TNF-alpha induced VCAM-1 expression: inhibits TNF-alpha and IKBKB genes
[2]
  Inhibition of IKBKB induced VCAM-1 expression: inhibits TNF-alpha and IKBKB genes
[3]
  Inhibition of RELA induced VCAM-1 expression: not in RELA over-expressing cells

— patent publication US20070087344A1, “Methods for characterizing signaling pathways and compounds that interact therewith” (BIOSEEK, INC., priority 2003, published 2007)
